According to paper PMC8557901 (Microbiology Spectrum, 2021):

Assays:
[1] = system: P. yoelii in HepG2-CD81 cells; test: Hepatic stage of P. yoelii in HepG2-CD81 cells; assay type: cell-based; details: Plasmodium yoelii; hepatic schizonts
Procedure: Hepatocytes were seeded into collagen-coated black 96-well plates and maintained at 37°C in 5% CO2 in complete medium. […] The infected culture plates were centrifuged for 10 min at 900 × g, allowing fast parasite sedimentation, and further incubated with serial dilutions of M1. […] DMSO was used as a negative control. The number, size, and shape of the parasites were determined using a CellInsight high-content screening platform equipped with Studio HCS software (ThermoFisher Scientific). The parasite immunostaining was done using an […]70 antibody raised in mice and a secondary anti-mouse antibody coupled to Alexa Fluor 488 ([43]). […] Thirty-seven images, representing more than 95% of the total bottom surface area of a culture well in 96-well plates, were captured for analysis. The custom script used for counting and measuring parasites first required identification of the objects based on a fluorescence intensity threshold. The object identity was then further validated based on size and morphological (shape) criteria. The presence of DAPI-associated fluorescence in the selected objects allowed their final selection and the rejection of false positives. […] The parasitic size reduction was calculated on the average object area using the total surface area of each selected object (μm^2).

[2] = system: P. falciparum mature gametocytes (stage V); test: Exflagellation-blocking assay; assay type: cell-based, Plasmodium falciparum; details: 10 μM, 24 h preincubation of stage V gametocytes
Procedure: Exflagellation-blocking assays were performed according to published protocols ([48], [49]). Assays were performed using gametocyte cultures providing high-enough numbers of exflagellation centers for meaningful measurement (>30 centers of exflagellation in 50 microscope fields at 400× magnification). […] The 6-well plate was incubated at 37°C. After treatment with M1 during 2 h or 24 h, exflagellation was induced by decreasing the temperature to 25°C and replacing culture medium with AB serum. The numbers of exflagellation centers were recorded between 10 and 30 min after induction and compared to the numbers in the control (DMSO treatment). Activity was expressed as the percentage of exflagellation inhibition compared to the control.

[3] = Cytotoxicity on HepG2 cell line (MTT); assay type: cell-based; details: human, HepG2 cells
Procedure: The evaluation of the cytotoxicity of the tested molecules on the HepG2 cell line was performed according to the method of Mosman ([42]) with slight modifications. […] Triplicate assays were performed for each sample. Each well was then examined under a microscope to detect possible precipitate formation before the medium was aspirated from the wells. An amount of 100 μl of MTT solution (0.5 mg/ml in medium without FBS) was then added to each well. […] After this time, the MTT solution was removed and DMSO (100 μl) was added to dissolve the resulting blue formazan crystals. Plates were shaken vigorously (700 rpm) for 10 min. The absorbance was measured at 570 nm with 630 nm as the reference wavelength using a Tecan Infinite F-200 microplate reader. DMSO was used as a blank and doxorubicin as a positive control. Cell viability was calculated as the percentage compared to the control (cells incubated without compound). […] CC50 values represent the mean values calculated from three independent experiments.

[4] = system: P. falciparum F32-ART5 (artemisinin-resistant); test: Standard in vitro chemosensitivity assay (hypoxanthine uptake), F32-ART5; assay type: cell-based; details: Plasmodium falciparum, F32, 48 h, read-out: Mean EC50 ± SD
Procedure: The Plasmodium falciparum artemisinin-resistant strain F32-ART5 and its twin artemisinin-sensitive line F32-TEM ([30], [31]) were cultivated at 37°C with 5% CO2 in human red blood cells (EFS [French Blood Bank]) diluted to 2% hematocrit in RPMI 1640 medium supplemented with 5% human serum (EFS) as previously reported ([47]).
In vitro susceptibility of P. falciparum parasites was determined by using the standard hypoxanthine uptake inhibition assay as described previously ([51]) with some modifications ([52]). After D-sorbitol treatment, parasites synchronized at the ring stage were exposed for 48 h, with [^3H]hypoxanthine (Perkin Elmer, France), to a range of concentrations of the different tested compounds. […] Each result represents 3 independent experiments.

[5] = Cytotoxicity on the MDCK renal cell line (MTT); assay type: cell-based, canine; details: dog, MDCK cells
Procedure: MDCK cell line (Madin-Darby Canine Kidney cells) was maintained at 37 °C, 5% CO2 with 90% humidity in DMEM supplemented with 5% fetal bovine serum, 1% L-glutamine (200 mM), penicillin (100 U/mL) and streptomycin (100 μg/mL) (complete medium). The evaluation of Gamhepathiopine cytotoxicity on this cell line was performed according to the method of Mosman with slight modifications. Briefly, 3.10^4 cells in 100 μL of complete medium were inoculated into each well of 96-well plates and incubated at 37 °C in a humidified 5% CO2. After 24 h incubation, to obtain adherent cells, 100 μL of medium with various concentrations of Gamhepathipoine dissolved in DMSO were added and refreshed on a daily basis for 72 h at 37 °C. Each sample was tested on 4 technical replicates. The MTT solution (100µL/well, 0.5 mg/mL in medium without FBS) was then added to each well. Cells were incubated for 4 h at 37 °C. The MTT solution was then removed and a mixture of DMSO/Ethanol (1:1; 100 μL/well) was added to dissolve the resulting blue formazan crystals. The absorbance was measured at 540 nm on a Flex Station Microplate Reader.

## Cc1ccc(-c2cc3nc(NC(C)(C)C)[nH]c(=O)c3s2)cc1 [Metabolite M1, 2-(tert-Butylamino)-6-(p-tolyl)thieno[3,2-d]pyrimidin-4(3H)-one]
[1]
  EC50: 0.067 µM
[2]
  mean percentage for male exflagellation: 7.5%
[3]
  CC50 at 72 h: 24 µM
[4]
  EC50: 0.227 ± 0.04 µM
[5]
  CC50 at 72 h: 39.5 µM
